From US20050059977A1, “Monitoring circadian activity” (priority 2003, published 2005)

Key:
[1] = system: pineal gland; experiment: In vivo pineal microdialysis with drug infusion through the dialysis membrane; on-line HPLC of melatonin and serotonin (5-HT) secretion; design: species or system rat
Protocol: Adult Sprague Dawley male rats (220-225 g) were house at 20-25° C. with lights on at 11 am (LD 14:10). Food and were available ad libitum throughout the experiment. Illumination was supplied by white fluorescent lamps (600 lux at cage level). Rats were placed in the LD cycles for at least 2 weeks before the start of surgery.
The animals were deeply anesthetized with a combination of Ketamine (10 mg/ml, 0.5 ml/100 g weight, i.p.) and Xylazine (2 mg/ml, 0.5 ml/100 g weight, i.p.). The animals' heads were shaved and positioned in a stereotaxic instrument. A longitudinal incision (approximately 2.5 cm) is made along the midline in the skin from anterior (level of the eyes) to posterior (base of the skull). The sagittal and lambdoid sutures were then exposed by scraping away the periosteum to the temporal muscles. […] The dura was exposed after grinding away the top bone, which was removed using iris forceps after making a cross cut with a scalpel blade (FIG. 1B). […] Bleeding was controlled with cotton wool pledget, or flushed with water and suctioned. Three stainless steel screws were placed nearby in the parietal and frontal bones to serve as anchors. After the animal's head was repositioned 30 degrees downward, the dura matter below the confluence of sinuses was then lifted 5 mm with a hook fixed to the stereotaxic frame (FIG. 1C). The dorsal cerebellum was then pressed downward with a glass blunt tube to expose the pineal gland. The tentorium cerebelli which covers the posterior surface of the pineal and connects to the confluence of the sinuses, was then carefully reflected to visualize the pineal with a micro sharp hook, while the bleeding around the pineal was flushed and suctioned. The pineal vein is visible in the midline of the pineal posterior surface (FIG. 1D) which divides the pineal gland into two parts and drains it to the confluence of the sinuses. The tip of the guide cannula (CMA Microdialysis, N. Chelmsford, Mass.) was then positioned adjacent to either side of the exposed pineal before the skull was closed with dental cement. The rats were allowed to recover for 24 hours before experimentation.
(§1) Pineal microdialysis was carried out as follows. Immediately before sampling, the rat was anesthetized with halothane briefly, the stylet (or dummy probe) was replaced with a microdialysis proble (CMA12, 20 KD cut off, membrane length 4 mm)(CMA Microdialysis, N. Chelmsford, Mass.) and fixed with plastic glue. The dialysis probe was continuously infused via the microbore PEEK tubing (0.65 mm OD, 0.12 mm ID) at a flow rate of 2 ul/min with artificial CSF (Harvard, Holliston, Mass.). Samples were collected at 10 minutes intervals via the PEEK tube into a 20 ul loop of Pollen 8 automatic injector (BAS, West Lafayette, Ind.), which was on-line with the HPLC system. The sample loop was set to be retained in the load position during the 10 minute cycles and was automatically switched to the injection positions briefly, after which the cycle was repeated. The rats were linked to the apparatus for dialysis through a quartz dual channel swivel (Harvard/Instech, Boston, Mass.) to prevent the tubing from entanglement. […]
The analytical condition for the simultaneous detection of 5-HT/NAS/melatonin was based on Drijffiout et al. (J. Neurochem. 61: 936-942 (1993)) with minor modifications. A Shimadzu pump (Shimadzu, Columbia, USA) was used in conjunction with a Shimadzu fluorescence detector (FD, excitation: 280 nm, emission: 345 nm). […]

[2] = system: NAT; experiment: Pineal in situ hybridization for NAT RNA after drug infusion by microdialysis; assay type: in vivo, rat
Protocol: as §1, with “entanglement. All pharmacological agents with molecular weights less than […] were delivered to the pineal through the microdialysis tubing. All drugs were infused after dissolving in artificial CSF solution at final concentrations indicated and for the duration described in the figure legends.” for “entanglement.”

[3] = ISO 1 uM infused into pineal for 2.5 hours during the day (14:30 to 17:00), days 7-10 of microdialysis, single rat
[4] = dibutyryl cAMP 10 mM infused through the microdialysis tube during the day

SMILES: CC(C)NCC(O)c1ccc(O)c(O)c1 (stereo not shown) [ISO, Isoprenaline]
- effect on serotonin (5-HT) output as melatonin output increases [1, 3]: decreases in a perfectly inverse manner
- time after ISO treatment at which melatonin reaches a maximum [1, 3]: 2 h
- time after ISO withdrawal within which melatonin decreases [1, 3]: ≤ 1 h
- time after infusion at which melatonin levels begin to increase [1, 3]: 1 h
- NAT RNA expression in pineal sections (in situ hybridization) ([2]; ISO 1 uM infused through dialysis membrane during the day, 12th day of microdialysis, n=5 rats): restricted to the region surrounding the probe membrane

SMILES: CCCC(=O)Nc1ncnc2c1ncn2[C@@H]1O[C@@H]2COP(=O)(O)O[C@H]2[C@H]1OC(=O)CCC [dibutyryl-cAMP]
- melatonin production [1, 4]: activated
- NAT gene induction in pineal sections (in situ hybridization) [2, 4]: NAT gene induction is detected
